Source: the supplement of paper PMC6335503

Columns and labels:
Assay in all cases: cell viability, percent of DMSO control (CellTiter-Glo); higher = more viable cells
Details in all cases: 72 h
[1] = test system: DFTD cell line T1 (06/2887)
Protocol: (§1)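 Eight-point dose titration of 41 screen hits in triplicate wells on four Tasmanian devil DFTD tumour cell lines (T1-T4) and devil fibroblasts, 384-well plates. Viability was read by CellTiter-Glo (ATP) after 72 h at 37 °C. Percent of control per plate: DMSO wells = 100%, positive-control wells = 0%.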

[2] = test system: DFTD cell line T2 (05/2569)
Protocol: as §1

[3] = test system: DFTD cell line T3 (06/0368)
Protocol: as §1

[4] = test system: DFTD cell line T4 (07/0192)
Protocol: as §1

CS(=O)(=O)CCNCc1ccc(-c2ccc3ncnc(Nc4ccc(OCc5cccc(F)c5)c(Cl)c4)c3c2)o1.Cc1ccc(S(=O)(=O)O)cc1.Cc1ccc(S(=O)(=O)O)cc1.O [Lapatinib ditosylate monohydrate]
cell viability [%]
Details | 0.00617 µM | 0.0185 µM | 0.0556 µM | 0.166667 µM | 0.5 µM | 1.5 µM | 4.5 µM | 13.5 µM
[1] | 107 | 96.9 | 92.2 | 59.3 | 38.8 | 27.7 | 31.9 | 17.9
[2] | 100 | 88.5 | 87.2 | 74.9 | 58.2 | 41.5 | 40.8 | 24.9
[3] | 104 | 94.6 | 92.3 | 85.4 | 69.8 | 38.4 | 48.1 | 34
[4] | 98.9 | 94 | 94.6 | 68.7 | 60.1 | 29.7 | 38.5 | 24.5

COc1cc2ncnc(Nc3cccc(Cl)c3F)c2cc1OC(=O)N1CCN(C)C[C@H]1C [AZD3759]
cell viability [%]
Details | 0.00617 µM | 0.0185 µM | 0.0556 µM | 0.166667 µM | 0.5 µM | 1.5 µM | 4.5 µM | 13.5 µM
[1] | 96.9 | 110 | 113 | 95.3 | 59.1 | 38.1 | 22.6 | 31.5
[2] | 97.6 | 107 | 131 | 121 | 81.8 | 48.9 | 22.9 | 32
[3] | 96.2 | 89.5 | 122 | 107 | 76.4 | 52.8 | 37.7 | 41.7
[4] | 102 | 96.5 | 111 | 109 | 78.4 | 55 | 28.7 | 25

C=CC(=O)N1CCC[C@@H](n2nc(-c3ccc(Oc4ccccc4)cc3)c3c(N)ncnc32)C1
cell viability [%]
Details | 0.00617 µM | 0.0185 µM | 0.0556 µM | 0.166667 µM | 0.5 µM | 1.5 µM | 4.5 µM | 13.5 µM
[1] | 112 | 123 | 71.6 | 37.3 | 26.6 | 23.2 | 28.6 | 14
[2] | 103 | 124 | 83.4 | 51.2 | 32.3 | 29.5 | 30 | 17.3
[3] | 120 | 94.2 | 95.2 | 65.1 | 38.9 | 36.7 | 34.5 | 24.5
[4] | 114 | 85 | 79.7 | 51.3 | 22.6 | 20.4 | 21.4 | 12.3

O=c1c(=NNc2nnn[nH]2)c(=O)c2ccccc12
cell viability [%]
Details | 0.00617 µM | 0.0185 µM | 0.0556 µM | 0.166667 µM | 0.5 µM | 1.5 µM | 4.5 µM | 13.5 µM
[1] | 111 | 134 | 108 | 109 | 100 | 6.85 | -3.59 | -9.34
[2] | 114 | 133 | 102 | 96.4 | 89.2 | 1.91 | -2.74 | -6.89
[3] | 123 | 108 | 105 | 110 | 99.8 | -0.871 | -0.369 | -6.58
[4] | 112 | 109 | 107 | 113 | 99.9 | -4.87 | -0.683 | -9.39

Cn1cnc2c(F)c(Nc3ccc(Br)cc3Cl)c(C(=O)NOCCO)cc21.O=S(=O)(O)O [Selumetinib (AZD6244)]
cell viability [%]
Details | 0.00617 µM | 0.0185 µM | 0.0556 µM | 0.166667 µM | 0.5 µM | 1.5 µM | 4.5 µM | 13.5 µM
[1] | 104 | 100 | 104 | 57 | 41 | 35.4 | 29.1 | 33.4
[2] | 98.8 | 102 | 108 | 63 | 51.7 | 39.3 | 35.4 | 35.8
[3] | 102 | 112 | 99.1 | 75.3 | 63.7 | 56.9 | 42.5 | 50.7
[4] | 89 | 105 | 88 | 62.8 | 56.2 | 46 | 35 | 31.1

CS(=O)(=O)CCNCc1ccc(-c2ccc3ncnc(Nc4ccc(OCc5cccc(F)c5)c(Cl)c4)c3c2)o1 [Lapatinib]
cell viability [%]
Details | 0.0123 µM | 0.037 µM | 0.111111111 µM | 0.333333 µM | 1 µM | 3 µM | 9 µM | 27 µM
[1] | 87.5 | 112 | 87.1 | 42.6 | 30.1 | 28.2 | 21.2 | 12.5
[2] | 78.4 | 133 | 100 | 68.6 | 40.4 | 44.6 | 21.6 | 8.25
[3] | 80.9 | 110 | 84.9 | 70.4 | 42.1 | 44.9 | 31.7 | 5.72
[4] | 81.5 | 113 | 84.5 | 53 | 32 | 29.4 | 20.7 | 16.9

CCOc1cc2ncc(C#N)c(Nc3ccc(F)c(Cl)c3)c2cc1NC(=O)/C=C/CN(C)C [Pelitinib (EKB-569)]
cell viability [%]
Details | 0.00617 µM | 0.0185 µM | 0.0556 µM | 0.166667 µM | 0.5 µM | 1.5 µM | 4.5 µM | 13.5 µM
[1] | 82.1 | 115 | 93.5 | 76.8 | 22 | 30.3 | 34.1 | -2.36
[2] | 79.7 | 121 | 111 | 98.2 | 42.1 | 42.4 | 33.2 | 8.16
[3] | 81.3 | 125 | 103 | 76.4 | 58.9 | 39.5 | 33.4 | 36.2
[4] | 83 | 113 | 97.4 | 77.8 | 53.1 | 18.3 | 19.6 | 22.1

C=CC(=O)Nc1cccc(Nc2nc(Nc3ccc(N4CCN(C(C)=O)CC4)cc3OC)ncc2C(F)(F)F)c1 [Rociletinib (CO-1686, AVL-301)]
cell viability [%]
Details | 0.00617 µM | 0.0185 µM | 0.0556 µM | 0.166667 µM | 0.5 µM | 1.5 µM | 4.5 µM | 13.5 µM
[1] | 121 | 114 | 113 | 92.4 | 80.6 | 41.4 | 16.9 | 4.81
[2] | 119 | 108 | 108 | 104 | 86.5 | 63.1 | 33.7 | 12
[3] | 127 | 113 | 94.5 | 99.1 | 101 | 58.2 | 40.4 | 17.4
[4] | 116 | 101 | 102 | 89.6 | 88.6 | 56.6 | 32.4 | 11.9

COc1cc2ncnc(Nc3ccc(F)c(Cl)c3)c2cc1NC(=O)/C=C/CN1CCCCC1
cell viability [%]
Details | 0.00617 µM | 0.0185 µM | 0.0556 µM | 0.166667 µM | 0.5 µM | 1.5 µM | 4.5 µM | 13.5 µM
[1] | 97.4 | 108 | 94.3 | 58.2 | 36.2 | 27.5 | 30.8 | 19.8
[2] | 112 | 95.2 | 106 | 90.6 | 81.1 | 51 | 49.8 | 50.5
[3] | 108 | 97.5 | 91.6 | 77.7 | 39.7 | 38.3 | 27.9 | -10.9
[4] | 107 | 96.2 | 88 | 77.2 | 25 | 26.5 | 11.7 | -11.1

C=CC(=O)Nc1cc(Nc2ncc(Cl)c(-c3c[nH]c4ccccc34)n2)c(OC)cc1N(C)CCN(C)C [Mutant EGFR inhibitor]
cell viability [%]
Details | 0.00617 µM | 0.0185 µM | 0.0556 µM | 0.166667 µM | 0.5 µM | 1.5 µM | 4.5 µM | 13.5 µM
[1] | 94.7 | 83.8 | 62.6 | 29.1 | 26.6 | 9.39 | 1.63 | 7.99
[2] | 98.2 | 93.9 | 94.8 | 50.8 | 37.3 | 16.6 | 5.63 | 11.5
[3] | 87 | 93 | 86.5 | 39.6 | 38.2 | 22 | 12.8 | 26.6
[4] | 75.6 | 86.8 | 89 | 35.9 | 20.9 | 6.23 | 3.77 | 19.9

C=CC(=O)N1CCC(Oc2cc3c(Nc4ccc(Cl)c(Cl)c4F)ncnc3cc2OC)CC1 [Poziotinib (HM781-36B)]
cell viability [%]
Details | 0.00617 µM | 0.0185 µM | 0.0556 µM | 0.166667 µM | 0.5 µM | 1.5 µM | 4.5 µM | 13.5 µM
[1] | 56.7 | 29.4 | 24.3 | 29.3 | 28 | 24.4 | 26.8 | 26.6
[2] | 87.7 | 49.6 | 41.5 | 38.3 | 39 | 26.8 | 22.5 | 17
[3] | 87 | 52.5 | 44 | 44.6 | 42.2 | 30.8 | 35.9 | 33
[4] | 88.7 | 44.9 | 30.6 | 26.5 | 27.4 | 27.1 | 22.8 | 21.4

C#Cc1cccc(Nc2ncnc3cc(OCCOC)c(OCCOC)cc23)c1 [Erlotinib]
cell viability [%]
Details | 0.0123 µM | 0.037 µM | 0.111111111 µM | 0.333333 µM | 1 µM | 3 µM | 9 µM | 27 µM
[1] | 108 | 104 | 113 | 101 | 57.3 | 35.3 | 19.8 | 17
[2] | 104 | 80.4 | 102 | 89.2 | 72.1 | 46.1 | 24.3 | 34.5
[3] | 101 | 108 | 99.9 | 81.5 | 68.8 | 49.3 | 33.1 | 40.5
[4] | 88.3 | 115 | 117 | 79.3 | 85.1 | 43.3 | 24.4 | 22

CC#CC(=O)Nc1ccc2ncnc(Nc3cccc(Br)c3)c2c1
cell viability [%]
Details | 0.00617 µM | 0.0185 µM | 0.0556 µM | 0.166667 µM | 0.5 µM | 1.5 µM | 4.5 µM | 13.5 µM
[1] | 94 | 95.5 | 79.5 | 63.3 | 40.9 | 21.1 | 14.8 | 12.3
[2] | 99.6 | 85 | 101 | 84 | 84.5 | 44.6 | 30.3 | 33.4
[3] | 95.8 | 105 | 108 | 76.6 | 65.5 | 38.7 | 28.4 | 18.3
[4] | 81.6 | 98.5 | 106 | 73.9 | 50.7 | 22.7 | 13.5 | 4.04

Cc1sc2c(c1C)C(c1ccc(Cl)cc1)=N[C@@H](CC(=O)Nc1ccc(O)cc1)c1nnc(C)n1-2 [OTX015]
cell viability [%]
Details | 0.0123 µM | 0.037 µM | 0.111111111 µM | 0.333333 µM | 1 µM | 3 µM | 9 µM | 27 µM
[1] | 103 | 100 | 74.2 | 59.1 | 31.2 | 36 | 30.2 | 36.9
[2] | 105 | 128 | 97.9 | 104 | 70.1 | 44.1 | 36.1 | 45.3
[3] | 104 | 120 | 84.2 | 79.8 | 57.3 | 50.5 | 46.8 | 54.8
[4] | 93.3 | 85.1 | 69.9 | 72.7 | 51.1 | 55.9 | 47.1 | 56.2

COc1cc2ncnc(Nc3cccc(Cl)c3)c2cc1OC [AG-1478]
cell viability [%]
Details | 0.00617 µM | 0.0185 µM | 0.0556 µM | 0.166667 µM | 0.5 µM | 1.5 µM | 4.5 µM | 13.5 µM
[1] | 117 | 115 | 106 | 109 | 54.7 | 39.2 | 32.7 | 28.9
[2] | 99.4 | 105 | 108 | 114 | 81 | 49.2 | 40.2 | 34
[3] | 125 | 105 | 103 | 117 | 83.2 | 63.5 | 53.2 | 46.9
[4] | 119 | 110 | 104 | 128 | 89.3 | 68.1 | 38 | 32.3
